# According to US20160318856A1, “Substituted Urea eIF2alpha Kinase Activators” (THE BRIGHAM AND WOMEN'S HOSPITAL, INC., priority 2013, published 2016):
# Where two headings read alike, the source gives them in different places.
# Key:
# [1] = system: eIF2α phosphorylation (eIF2•GTP•Met-tRNAi ternary complex; HRI activation); experiment: surrogate dual luciferase eIF2α phosphorylation (ternary complex) assay; format: cell-based, human; conditions: for maximal fold induction: Homo sapiens; for C3X: Calculated concentration of compound that will cause three-fold increase in the surrogate eIF2α phosphorylation assay: Table 7
# From the text: The dual luciferase expression vector and other plasmids used for these studies were previously described (see, for example, Ziegeler, G. et al. Journal of Biological Chemistry 2010, 285(20), 15408-19). The ternary complex assay, surrogate of eIF2α phosphorylation, has been described elsewhere (see, for example, Chen, T. et al. Nature Chemical Biology 2011, 7(9), 610-6). Briefly, the pBISA vector, which contains seven copies of the tetracycline-regulated transactivator response element (TRE), is flanked on both sides by minimal human cytomegalovirus (CMV) minimal promoters allowing bi-directional transcription and two MCSs (multiple cloning sites). Firefly and renilla luciferases were subcloned into MCS-I and MCS-II, respectively. This plasmid, designated pBISA-DL, transcribes two mRNAs that contain the 90 nucleotide plasmid derived 5′UTR (same sequence in both mRNAs), and the ORF encoding either firefly or renilla luciferase followed by a polyadenylation sequence. This plasmid was further modified by inserting the 5′UTR of ATF-4 mRNA into MCS-I in front of the firefly luciferase mRNA. Transcription from this unit generates an mRNA that contains the firefly luciferase ORF preceded by a 5′UTR composed of 90 nucleotides derived from the plasmid and 267 nucleotides derived from the 5′UTR of ATF-4 mRNA. Transcription from the other unit generates an mRNA that contains the renilla luciferase ORF proceeded only by the 90-nucleotide plasmid-derived sequence in the 5′UTR (pBISA-DL (ATF-4)) (see, for example, Chen, T. et al. Nature Chemical Biology 2011, 7(9), 610-6).
# Cells expressing firefly and renilla luciferases were assayed with a dual glow luciferase assay kit, per manufacturer's instruction (Promega Inc., Madison, Wis.). The data calculations were carried out as the ratio of firefly to renilla luciferase signal.
# A library of 1900 urea compounds was screened in the surrogate dual luciferase eIF2α phosphorylation (ternary complex) assay. This library was originally assembled and screened for inhibition of sEH by Hammock's group at UC-Davis (see, for example, Chen, T. et al. Nature Chem Biol 2011, 7, 610-616; Ziegeler, G et al. J Biol Chem 2010, 285, 15408-15419). We developed this assay in order to identify compounds that activate HRI, taking advantage of the fact that activated HRI phosphorylates eIF2α thereby reducing the amount of the eIF2•GTP•Met-tRNAi ternary complex that results in inhibition of translation of many mRNAs but paradoxically increases translation of some mRNAs that contain multiple upstream ORF (uORF) in their 5′ untranslated regions (UTRs). In our assay, firefly (F) luciferase mRNA is fused to 5′UTR of activating transcription factor 4 (ATF-4) mRNA that has multiple uORFs while renilla (R) luciferase mRNA is fused to a 5′UTR lacking any uORFs. Compounds that reduce the amount of the ternary complex, such as those activating HRI, would increase F luciferase expression while decreasing the R luciferase expression, resulting in an increased F/R luciferase ratio. To calculate the activity scores, the F/R ratios for every compound-treated wells were normalized to vehicle-treated (DMSO) wells that was arbitrarily set at 1 (F/R=1).
# ASPC-1 = experiment: cell proliferation assay, ASPC-1; format: cell-based; conditions: Homo sapiens, ASPC1; SRB assay, Table 7; read-out: IC50 ASPC-1
# Protocol: (§1) Cells were seeded in 96-well plates and maintained for 5 days in the presence of 0.5 to 20 μM of individual compound, and cell proliferation was measured by the sulforhodamine B (SRB) assay as described previously (see, for example, Palakurthi, S. S. et al. Cancer Research 2000, 60(11), 2919-2925). Briefly, at the end of a 5-day treatment, cells were fixed in 10% cold trichloroacetic acid. Cell number was estimated by measuring the remaining bound dye of sulforhodamine B after washing. The percentage of growth was calculated by using the equation: 100×[(T−T0)/(C−T0)], where T and C represent the absorbance in treated and control cultures at Day 5, and T0 at time zero, respectively. If T is less than T0, cell death has occurred and can be calculated from 100×[(T−T0)/T0].
# (§2) The compounds shown in Table 7 were evaluated using for activation of HRI using the dual luciferase surrogate eIF2α phosphorylation assay (see, for example, Chen, T. et al. Nature Chem Biol 2011, 7, 610-616) and for inhibition of cell proliferation using the SRB assay (see, for example, Palakurthi, S. S. et al. Cancer Res 2000, 60, 2919-2925) as described above.
# Panc-1 = experiment: cell proliferation (SRB) assay, Panc-1; format: cell-based; conditions: Homo sapiens, Table 7
# Protocol: as §1, §2
# [2] = system: CRL-2813 human melanoma cancer cells; experiment: cell proliferation (SRB) assay, CRL-2813; format: cell-based; conditions: Homo sapiens, CRL2813
# Protocol: as §1
# [3] = system: CRL-2813 human melanoma cancer cells transfected with HRI-targeting or non-targeting siRNA; experiment: cell proliferation (SRB) assay after HRI knockdown; format: cell-based; conditions: for fold higher IC50 values in cells transfected with HRI-targeting siRNA vs. non-targeting siRNA: CRL-2813 cells, FIG. 10; for dependence of inhibition of cell proliferation on HRI: HRI siRNA vs non-target siRNA, CRL-2813 (also MCF-7); for fold difference in resistance of cells to inhibition of cell proliferation upon HRI knockdown: average, CRL-2813, FIG. 8
# Protocol: as §1
# Cell proliferation is a meaningful read-out for determining the specificity of a compound as it captures both on-target and off-target effects of the compound under study. […] If these compounds specifically activate HRI and this activity is required for the inhibition of cell proliferation, then reducing the expression of HRI should blunt their effect on cell proliferation. For this purpose, expression of HRI was knocked down in CRL-2813 human melanoma (about 70% knockdown efficiency) and MCF-7 human breast cancer cells (about 90% knockdown efficiency). These two cell lines were chosen because the HRI knockdown efficiency is lower in CRL-2813 than in MCF-7 cells providing a sort of dose-response data that correlates knockdown efficiency with the resistance of cells to inhibition of cell proliferation. […] Referring to FIG. 5A, CRL-2813 human melanoma cancer cells, and (FIG. 5B) MCF-7 human breast cancer cells were transfected with HRI targeted or non-targeted siRNA, treated with the indicated concentrations of I-6p and cell proliferation was measured by SRB assay. Calculated IC50 for all four compounds tested in CRL-2813 human melanoma cancer cells and MCF-7 human breast cancer cells transfected with non-target siRNA control (NTC) or HRI is shown in FIG. 5C and FIG. 5D, respectively. The experiment was conducted in triplicate and each experiment was independently performed three times. Data are shown as Mean±S.E.M. *NTC=non-target siRNA control.
# Referring to FIG. 8, CRL-2813 human melanoma cancer cells were transfected with HRI targeted or non-targeted siRNA, treated with the indicated concentrations of (A) I-14, (B) I-15, (C) III-4 and (D) III-5 and cell proliferation was measured by SRB assay. Calculated IC50 for all four compounds tested in CRL-2813 human melanoma cancer cells transfected with non-target siRNA control (NTC) or HRI is shown in (E). The experiment was conducted in triplicate and each experiment was independently performed three times. Data are shown as Mean±S.E.M. *NTC=non-target siRNA control, IC50=effective dose of drug that inhibit cell proliferation by 50%.
# In general, if the affinity of compounds for their molecular target is increased this should result in higher specificity of the compounds in the cell proliferation assay. […] These five compounds, two with average and three with high potency, were tested in cell proliferation assay using CRL-2813 cells transfected with non-targeted siRNA or HRI-targeted siRNA as described above.
# [4] = DMSO = 1, maximum tested concentration 20 μM, read-out: Emax: Maximum activity of compound expressed as fold over vehicle
# [5] = SRB assay, Table 7, read-out: IC50 CRL-2813
# [6] = surrogate eIF2α phosphorylation assay, Table 3, read-out: Emax (F/R)
# [7] = cell proliferation assay, Table 3, cell line not named, values equal CRL-2813 values of Table 8, read-out: IC50
# [8] = surrogate eIF2α phosphorylation assay, Table 4, read-out: Emax (F/R)
# [9] = cell proliferation assay, Table 4, cell line not named, read-out: IC50
Structure (SMILES),"maximal fold induction [1, 4]",C3X: Calculated concentration of compound that will cause three-fold increase in the surrogate eIF2α phosphorylation assay [1] [µM],IC50 (ASPC-1) [nM],IC50 (Panc-1) [nM],"IC50 [2, 5] [nM]","maximal fold induction [1, 6]",fold higher IC50 values in cells transfected with HRI-targeting siRNA vs. non-targeting siRNA [3] [fold],dependence of inhibition of cell proliferation on HRI [3],fold difference in resistance of cells to inhibition of cell proliferation upon HRI knockdown [3] [fold],"IC50 [2, 7] [nM]","maximal fold induction [1, 8]","IC50 [2, 9] [nM]"
NC(=O)c1cc(C(F)(F)F)ccc1O[C@H]1CC[C@H](NC(=O)Nc2cccc(OC(F)(F)F)c2)CC1,6,8,3200,1900,1400,–,–,–,–,–,–,–
NC(=O)c1cc(O[C@H]2CC[C@H](NC(=O)Nc3cccc(OC(F)(F)F)c3)CC2)ccc1C(F)(F)F,5,14,2900,3000,3000,–,–,–,–,–,–,–
O=C(Nc1cccc(OC(F)(F)F)c1)N[C@H]1CC[C@H](Oc2ccc(C(F)(F)F)cc2)CC1,28,0.2,1000,1500,900,–,–,–,–,–,–,–
CC(=O)Nc1cc(C(F)(F)F)ccc1O[C@H]1CC[C@H](NC(=O)Nc2cccc(OC(F)(F)F)c2)CC1,5,4,2800,2500,1700,–,–,–,–,–,–,–
CC(=O)Nc1cc(C(F)(F)F)ccc1O[C@H]1CC[C@H](NC(=O)Nc2cccc(C(F)(F)F)c2)CC1,4.2,3.5,2600,1700,1900,–,–,–,–,–,–,–
O=C(Nc1cc(C(F)(F)F)cc(C(F)(F)F)c1)N[C@H]1CC[C@H](Oc2ccc(C(F)(F)F)cc2)CC1,38,0.15,–,700,150,–,–,–,–,–,–,–
N#Cc1cccc(NC(=O)N[C@H]2CC[C@H](Oc3ccc(C(F)(F)F)cc3)CC2)c1,10,2,–,2500,800,–,–,–,–,–,–,–
N#Cc1ccc(NC(=O)N[C@H]2CC[C@H](Oc3ccc(C(F)(F)F)cc3)CC2)cc1,9,0.6,–,2000,900,–,–,–,–,–,–,–
O=C(Nc1cccc(C(F)(F)F)c1)N[C@H]1CC[C@H](Oc2ccc(C(F)(F)F)cn2)CC1,6,3.5,–,2800,1500,–,–,–,–,–,–,–
N#Cc1cc(C(F)(F)F)ccc1O[C@H]1CC[C@H](NC(=O)Nc2cccc(C(F)(F)F)c2)CC1,8,2.5,–,1800,1300,–,–,–,–,–,–,–
N#Cc1ccc(O[C@H]2CC[C@H](NC(=O)Nc3cccc(C(F)(F)F)c3)CC2)cc1,4,5,–,3000,4000,–,–,–,–,–,–,–
O=C(Nc1cccc(C(F)(F)F)c1)N[C@H]1CC[C@H](Oc2ccc(F)cc2)CC1,11,2.5,–,3000,2100,–,–,–,–,–,–,–
"O=C(Nc1cccc(C(F)(F)F)c1)NC1CCC(Oc2ccccc2F)CC1 (stereo not drawn) [Compound I-14, 1-(4-(2-Fluorophenoxy)cyclohexyl)-3-(3-(trifluoromethyl)phenyl)urea]",–,–,–,–,–,7.98,~7,dependent on HRI,~8,2450 ± 900,–,–
"O=C(Nc1cccc(C(F)(F)F)c1)NC1CCC(Oc2cccc(F)c2)CC1 (stereo not drawn) [Compound I-15, 1-(4-(3-Fluorophenoxy)cyclohexyl)-3-(3-(trifluoromethyl)phenyl)urea]",–,–,–,–,–,7.23,~7,dependent on HRI,~8,2400 ± 600,–,–
"O=C(Nc1cccc(C(F)(F)F)c1)NC1CCC(OCc2ccc(F)cc2)CC1 (stereo not drawn) [III-4, 1-(4-((4-Fluorobenzyl)oxy)cyclohexyl)-3-(3-(trifluoromethyl)phenyl)urea]",–,–,–,–,–,–,–,dependent on HRI,–,–,9.58,2650 ± 800
"O=C(Nc1cccc(C(F)(F)F)c1)NC1CCCCC1Oc1ccc(C(F)(F)F)cc1 (stereo not drawn) [III-5, 1-(2-(4-(Trifluoromethyl)phenoxy)cyclohexyl)-3-(3-(trifluoromethyl)phenyl)urea]",–,–,–,–,–,–,–,dependent on HRI,–,–,5.89,3100 ± 1100
